Data as given in US20150150810A1, “TABLETS FOR COMBINATION THERAPY” (Gilead Sciences, Inc., priority 2009, published 2015).

Key:
[1] = Pharmacokinetic dose-ranging study of the compound of Formula II; assay type: in vivo; conditions: 100 mg dose
Protocol: A pharmacokinetic dose-ranging study involving the compound of Formula II was conducted. Doses for the compound of Formula II for the dose-ranging study included 50 mg, 100 mg and 200 mg.

[2] = Pharmacokinetic study of fixed-dose combinations of Formula I/Formula II/Formula III/Formula IV; assay type: in vivo; conditions: mean (CV %); for Cmax / AUC: in vivo
Protocol: A pharmacokinetic study involving two fixed-dose combinations of the compounds of Formula I/Formula II/Formula III/Formula IV was also conducted. Doses for the fixed-dose combination of the compounds of Formula I/Formula II/Formula III/Formula IV were 150 mg/100 mg/200 mg/300 mg (Dose A) and 150 mg/150 mg/200 mg/300 mg (Dose B) respectively. Pharmacokinetic data for the compound of Formula II from the study involving the two fixed dose combinations (Dose A and Dose B) is provided in the following table.

[3] = Chemical stability of Formula IV in tablet combinations; assay type: physicochemical
Text: Additionally, improper combinations of the compounds of Formula I, II, III, or IV in a bilayer tablet will also compromise the chemical stability of Formula IV. For example, Formula IV in the presence of silicon dioxide from the Formula II formulation will decompose Formula IV; and Formula IV in the in the presence of sodium lauryl sulphate from the Formula I formulation will decompose Formula IV.

[4] = in vivo, n = 11, arithmetic mean
[5] = Dose A: 150 mg/100 mg/200 mg/300 mg, n = 43
[6] = Dose B: 150 mg/150 mg/200 mg/300 mg, n = 42

| SMILES | CL/F ([1]; n = 11, arithmetic mean) | T1/2 ([1]; n = 11, median) | AUC [1, 4] | Cmax [1, 4] | Ctau [2, 5] | Ctau [2, 6] | Cmax [2, 5] | AUC ([2]; Dose A: Formula I/II/III/IV 150 mg/100 mg/200 mg/300 mg, n = 43) | Cmax [2, 6] | AUC ([2]; Dose B: Formula I/II/III/IV 150 mg/150 mg/200 mg/300 mg, n = 42) | chemical stability of Formula IV ([3]; Formula I, II, III and IV combined in a mixture as mono layer tablet) | chemical stability of Formula IV ([3]; in the presence of silicon dioxide from the Formula II formulation) | chemical stability of Formula IV ([3]; in the presence of sodium lauryl sulphate from the Formula I formulation) |
| --- | --- | --- | --- | --- | --- | --- | --- | --- | --- | --- | --- | --- | --- |
| CC(C)c1nc(CN(C)C(=O)N[C@@H](CCN2CCOCC2)C(=O)N[C@H](CC[C@H](Cc2ccccc2)NC(=O)OCc2cncs2)Cc2ccccc2)cs1 [Formula II] | 33.2 L/h | 3.12 h | 3440 ng·h/mL | 563 ng/mL | 10.8 (83.6) ng/mL | 23.3 (103) ng/mL | 855 ng/mL | 5150 ng·h/mL | 1570 ng/mL | 10400 ng·h/mL | – | – | – |
| CC(C)OC(=O)OCOP(=O)(CO[C@H](C)Cn1cnc2c(N)ncnc21)OCOC(=O)OC(C)C.O=C(O)/C=C/C(=O)O [Formula IV, tenofovir disoproxil fumarate] | – | – | – | – | – | – | – | – | – | – | compromises the chemical stability | decompose | decompose |
